Measurements as given in patent publication US20210338846A1, “COMPETITIVE PROSTATE-SPECIFIC MEMBRANE ANTIGEN (PSMA) BINDING AGENTS FOR REDUCTION OF NON-TARGET ORGAN UPTAKE OF RADIOLABELED PSMA INHIBITORS FOR PSMA POSITIVE TUMOR IMAGING AND RADIOPHARMACEUTICAL THERAPY” (The Johns Hopkins University, priority 2018, published 2021).
Like-named read-outs stand apart in the source and are kept apart here.

Tested on: PSMA+ PC-3 PiP and PSMA− PC-3 flu tumors
[1] = 1 h, co-injection 0.5 nmole YC-I-27
[2] = 2 hours (footnote a), co-injection 0.5 nmole YC-I-27
[3] = 24 h, co-injection 0.5 nmole YC-I-27

`O=C(O)CC[C@H](NC(=O)N[C@@H](CCC(=O)NCCc1ccc([125I])cc1)C(=O)O)C(=O)O` [[^125I]HS-549] was tested, and the “Biodistribution: Blood” value (1 h, No CI) was 5.9 ± 1.0 % injected dose/gram, the “Biodistribution: Flu tumor” value (1 h, No CI) was 2.2 ± 0.5 % injected dose/gram and the “Biodistribution: PiP tumor” value (1 h, No CI) was 78 ± 19 % injected dose/gram. The “Biodistribution: kidneys” value (1 h, No CI) was 106 ± 19 % injected dose/gram, the “Biodistribution: spleen” value (1 h, No CI) was 6.8 ± 3.4 % injected dose/gram and the “Biodistribution: stomach” value (1 h, No CI) was 0.9 ± 0.2 % injected dose/gram. The “Biodistribution: thyroid” value (1 h, No CI) was 1.2 ± 0.4 % injected dose/gram, the “Biodistribution: Blood” value [1] was 2.6 ± 0.6 % injected dose/gram and the “Biodistribution: Flu tumor” value [1] was 1.0 ± 0.45 % injected dose/gram. For the same molecule, the “Biodistribution: Lacrimal gland” value [1] was 1.1 ± 0.4 % injected dose/gram, the “Biodistribution: PiP tumor” value [1] was 31 ± 4.2 % injected dose/gram and the “Biodistribution: Salivary gland” value [1] was 1.0 ± 0.2 % injected dose/gram. For the same molecule, the “Biodistribution: kidneys” value [1] was 12.1 ± 1.9 % injected dose/gram, the “Biodistribution: spleen” value [1] was 0.8 ± 0.2 % injected dose/gram and the “Biodistribution: stomach” value [1] was 0.8 ± 0.3 % injected dose/gram. The “Biodistribution: thyroid” value [1] was 5.6 ± 9.2 % injected dose/gram, the “Biodistribution: Blood” value [2] was 0.8 ± 0.1 % injected dose/gram and the “Biodistribution: Flu tumor” value [2] was 0.3 ± 0.15 % injected dose/gram. For the same molecule, the “Biodistribution: Lacrimal gland” value [2] was 0.5 ± 0.3 % injected dose/gram, the “Biodistribution: PiP tumor” value [2] was 39 ± 4 % injected dose/gram and the “Biodistribution: Salivary gland” value [2] was 0.4 ± 0.2 % injected dose/gram. The “Biodistribution: kidneys” value [2] was 2.8 ± 0.8 % injected dose/gram, the “Biodistribution: spleen” value [2] was 0.4 ± 0.1 % injected dose/gram and the “Biodistribution: stomach” value [2] was 0.3 ± 0.1 % injected dose/gram. For the same molecule, the “Biodistribution: thyroid” value [2] was 0.3 ± 0.1 % injected dose/gram, the “Biodistribution: Blood” value (4 h, No CI) was 2.9 ± 0.3 % injected dose/gram and the “Biodistribution: Flu tumor” value (4 h, No CI) was 1.5 ± 0.3 % injected dose/gram. For the same molecule, the “Biodistribution: PiP tumor” value (4 h, No CI) was 75 ± 13 % injected dose/gram, the “Biodistribution: kidneys” value (4 h, No CI) was 97 ± 39 % injected dose/gram and the “Biodistribution: spleen” value (4 h, No CI) was 2.7 ± 0.8 % injected dose/gram. For the same molecule, the “Biodistribution: stomach” value (4 h, No CI) was 0.5 ± 0.2 % injected dose/gram, the “Biodistribution: thyroid” value (4 h, No CI) was 0.7 ± 0.3 % injected dose/gram and the “Biodistribution: Blood” value (21 hours (footnote b), No CI) was 1.4 ± 0.4 % injected dose/gram. The “Biodistribution: Flu tumor” value (21 hours (footnote b), No CI) was 0.4 ± 0.2 % injected dose/gram, the “Biodistribution: PiP tumor” value (21 hours (footnote b), No CI) was 23 ± 2 % injected dose/gram and the “Biodistribution: kidneys” value (21 hours (footnote b), No CI) was 3.1 ± 1.6 % injected dose/gram. The “Biodistribution: spleen” value (21 hours (footnote b), No CI) was 0.3 ± 0.1 % injected dose/gram, the “Biodistribution: stomach” value (21 hours (footnote b), No CI) was 0.1 ± 0.04 % injected dose/gram and the “Biodistribution: thyroid” value (21 hours (footnote b), No CI) was 0.4 ± 0.05 % injected dose/gram. The “Biodistribution: Blood” value [3] was 0.6 ± 0.3 % injected dose/gram, the “Biodistribution: Flu tumor” value [3] was 0.2 ± 0.2 % injected dose/gram and the “Biodistribution: Lacrimal gland” value [3] was 0.2 ± 0.1 % injected dose/gram. The “Biodistribution: PiP tumor” value [3] was 35 ± 5 % injected dose/gram, the “Biodistribution: Salivary gland” value [3] was 0.2 ± 0.1 % injected dose/gram and the “Biodistribution: kidneys” value [3] was 0.7 ± 0.3 % injected dose/gram. For the same molecule, the “Biodistribution: spleen” value [3] was 0.1 ± 0.07 % injected dose/gram, the “Biodistribution: stomach” value [3] was 0.1 ± 0.05 % injected dose/gram and the “Biodistribution: thyroid” value [3] was 0.5 ± 0.8 % injected dose/gram.
